{"source": "paper PMC12396409", "about": "“Screening and hit evaluation of a microbial metabolite library against the pathogenic Plasmodium falciparum and Toxoplasma gondii parasites” (International Journal for Parasitology: Drugs and Drug …, 2025)", "key": {"[1]": {"system": "P. falciparum 3D7 parasites", "experiment": "P. falciparum growth inhibition assay, 1-cycle (72 h treatment), SYBR DNA staining (library screen at 2 μg/mL and dose-response)", "type": "cell-based, Plasmodium falciparum", "details": "for activity at 2 µg/mL: Plasmodium falciparum, 3D7"}, "[2]": {"system": "T. gondii RH strain (RH-Tub-eYFP) tachyzoites", "experiment": "microbe, parasite or virus in culture", "type": "cell-based, Toxoplasma gondii"}, "[3]": {"system": "P. falciparum 3D7 parasites", "experiment": "P. falciparum growth inhibition assay, 2-cycle (120 h treatment), delayed-death screen and dose-response", "type": "cell-based, Plasmodium falciparum", "details": "for activity at 2 µg/mL: Plasmodium falciparum, 3D7"}, "[4]": {"details": "P. falciparum, 72 h, screen at 2 μg/mL, replicate 1"}, "[5]": {"details": "P. falciparum, 72 h, screen at 2 μg/mL, replicate 2"}, "[6]": {"details": "T. gondii, 72 h, screen at 2 μg/mL, replicate 1"}, "[7]": {"details": "T. gondii, 72 h, screen at 2 μg/mL, replicate 2"}, "[8]": {"details": "P. falciparum, 120 h, screen at 2 μg/mL, replicate 1"}, "[9]": {"details": "P. falciparum, 120 h, screen at 2 μg/mL, replicate 2"}, "[10]": {"details": "P. falciparum 3D7, 72 h, parasite screen at 2 μg/mL, % growth, replicate 1"}, "[11]": {"details": "P. falciparum 3D7, 72 h, parasite screen at 2 μg/mL, % growth, replicate 2"}, "[12]": {"details": "T. gondii, 72 h, parasite screen at 2 μg/mL, % growth, replicate 1"}, "[13]": {"details": "T. gondii, 72 h, parasite screen at 2 μg/mL, % growth, replicate 2"}, "[14]": {"details": "P. falciparum 3D7, 120 h, parasite screen at 2 μg/mL, % growth, replicate 1"}, "[15]": {"details": "P. falciparum 3D7, 120 h, parasite screen at 2 μg/mL, % growth, replicate 2"}, "[16]": {"details": "P. falciparum, 72 h, screen at 2 μg/mL, replicate 1, read-out: Pf_72h_%Growth_Rep1"}, "[17]": {"details": "P. falciparum, 72 h, screen at 2 μg/mL, replicate 2, read-out: Pf_72h_%Growth_Rep2"}, "[18]": {"details": "P. falciparum, 120 h, screen at 2 μg/mL, replicate 1, read-out: Pf_120h_%Growth_Rep1"}, "[19]": {"details": "P. falciparum, 120 h, screen at 2 μg/mL, replicate 2, read-out: Pf_120h_%Growth_Rep2"}}, "note": "Like-named read-outs stand apart in the source and are kept apart here.", "data": [{"smiles": "CCCNC[C@]1(O)[C@H](C)O[C@@H](O[C@H]2[C@H](C)[C@@H](O[C@@H]3O[C@H](C)C[C@H](N(C)C)[C@H]3O)[C@](C)(O)C[C@@H](C)CN[C@H](C)[C@@H](O)[C@](C)(O)[C@@H](CC)OC(=O)[C@@H]2C)C[C@@]1(C)OC", "note": "[Tulathromycin, reference compound]", "values": [{"measurement": "1) Growth (%) at 72 h", "setting": "[1]; P. falciparum, 2 μg/mL, 72 h", "result": 33.53, "unit": "%"}, {"measurement": "Pf_72h_%Growth_Rep1", "setting": "[1]; [4]", "result": 33.36, "unit": "%"}, {"measurement": "Pf_72h_%Growth_Rep2", "setting": "[1]; [5]", "result": 33.69, "unit": "%"}, {"measurement": "Tg_72h_%Growth_Rep1", "setting": "[2]; [6]", "result": 76.92, "unit": "%"}, {"measurement": "Tg_72h_%Growth_Rep2", "setting": "[2]; [7]", "result": 80.94, "unit": "%"}, {"measurement": "2) Growth (%) at 120 h", "setting": "[3]; P. falciparum, 2 μg/mL, 120 h", "result": 16.75, "unit": "%"}, {"measurement": "Pf_120h_%Growth_Rep1", "setting": "[3]; [8]", "result": 21.75, "unit": "%"}, {"measurement": "Pf_120h_%Growth_Rep2", "setting": "[3]; [9]", "result": 11.74, "unit": "%"}, {"measurement": "3) Fold change (72 h/120 h)", "setting": "[3]; P. falciparum, growth at 72 h / growth at 120 h, 2 μg/mL", "result": 2.0}]}, {"smiles": "COC(=O)C1=CO[C@@H](C)[C@@H]2CN3CCc4c([nH]c5cc(OC)c(OC)cc45)[C@H]3C[C@H]12", "note": "[Reserpiline]", "values": [{"measurement": "Pf_72h_%Growth_Rep1", "setting": "[1]; P. falciparum, 72 h, parasite screen 2 μg/mL, % growth, replicate 1", "result": 29.90, "unit": "%"}, {"measurement": "Pf_72h_%Growth_Rep2", "setting": "[1]; P. falciparum, 72 h, parasite screen 2 μg/mL, % growth, replicate 2", "result": 27.58, "unit": "%"}, {"measurement": "Tg_72h_%Growth_Rep1", "setting": "[2]; T. gondii, 72 h, parasite screen 2 μg/mL, % growth, replicate 1", "result": 145.39, "unit": "%"}, {"measurement": "Tg_72h_%Growth_Rep2", "setting": "[2]; T. gondii, 72 h, parasite screen 2 μg/mL, % growth, replicate 2", "result": 95.76, "unit": "%"}, {"measurement": "Pf_120h_%Growth_Rep1", "setting": "[3]; P. falciparum, 120 h, parasite screen 2 μg/mL, % growth, replicate 1", "result": 31.58, "unit": "%"}, {"measurement": "Pf_120h_%Growth_Rep2", "setting": "[3]; P. falciparum, 120 h, parasite screen 2 μg/mL, % growth, replicate 2", "result": 13.59, "unit": "%"}]}, {"smiles": "Cn1c(=O)/c(=C/c2ccccc2)[nH]c(=O)/c1=C/c1ccccc1", "note": "[BIA-P1156]", "values": [{"measurement": "Pf_72h_%Growth_Rep1", "setting": "[1]; [10]", "result": 84.26, "unit": "%"}, {"measurement": "Pf_72h_%Growth_Rep2", "setting": "[1]; [11]", "result": 90.89, "unit": "%"}, {"measurement": "Tg_72h_%Growth_Rep1", "setting": "[2]; [12]", "result": 116.90, "unit": "%"}, {"measurement": "Tg_72h_%Growth_Rep2", "setting": "[2]; [13]", "result": 94.03, "unit": "%"}, {"measurement": "Pf_120h_%Growth_Rep1", "setting": "[3]; [14]", "result": 81.04, "unit": "%"}, {"measurement": "Pf_120h_%Growth_Rep2", "setting": "[3]; [15]", "result": 137.39, "unit": "%"}]}, {"smiles": "CN(C)[C@@H]1C(=O)C(C(=O)NCN2CCN(CCO)CC2)=C(O)[C@@]2(O)C(=O)C3=C(O)c4c(O)cccc4[C@@](C)(O)[C@H]3C[C@@H]12", "note": "[BIA-P1473]", "values": [{"measurement": "Pf_72h_%Growth_Rep1", "setting": "[1]; [10]", "result": 83.77, "unit": "%"}, {"measurement": "Pf_72h_%Growth_Rep2", "setting": "[1]; [11]", "result": 98.47, "unit": "%"}, {"measurement": "Tg_72h_%Growth_Rep1", "setting": "[2]; [12]", "result": 118.64, "unit": "%"}, {"measurement": "Tg_72h_%Growth_Rep2", "setting": "[2]; [13]", "result": 93.61, "unit": "%"}, {"measurement": "Pf_120h_%Growth_Rep1", "setting": "[3]; [14]", "result": 88.47, "unit": "%"}, {"measurement": "Pf_120h_%Growth_Rep2", "setting": "[3]; [15]", "result": 132.29, "unit": "%"}]}, {"smiles": "CC[C@H](C)[C@@H](OC(C)=O)[C@@H](C)C1=CC(=O)C2=C(O[C@]3(C)CC[C@H]4O[C@@H](C(C)(C)O)CC[C@]4(C)[C@H]3[C@@H]2O)C1=O", "note": "[Cochlioquinone A]", "values": [{"measurement": "activity at 2 µg/mL", "setting": "[1]; [16]", "result": 79.2, "unit": "%"}, {"measurement": "activity at 2 µg/mL", "setting": "[1]; [17]", "result": 80.1, "unit": "%"}, {"measurement": "percent parasite growth at 2 µg/mL", "setting": "[2]; Toxoplasma gondii; T. gondii, 72 h, screen at 2 μg/mL, replicate 1; read-out: Tg_72h_%Growth_Rep1", "result": 161, "unit": "%"}, {"measurement": "percent parasite growth at 2 µg/mL", "setting": "[2]; Toxoplasma gondii; T. gondii, 72 h, screen at 2 μg/mL, replicate 2; read-out: Tg_72h_%Growth_Rep2", "result": 90.2, "unit": "%"}, {"measurement": "activity at 2 µg/mL", "setting": "[3]; [18]", "result": 75.8, "unit": "%"}, {"measurement": "activity at 2 µg/mL", "setting": "[3]; [19]", "result": 74.1, "unit": "%"}]}, {"smiles": "CCCCCCCCCCCCCCCC(=O)OC[C@@H](NC(=O)C(Cl)Cl)[C@H](O)c1ccc([N+](=O)[O-])cc1", "note": "[Chloramphenicol palmitate]", "values": [{"measurement": "activity at 2 µg/mL", "setting": "[1]; [16]", "result": 83.7, "unit": "%"}, {"measurement": "activity at 2 µg/mL", "setting": "[1]; [17]", "result": 81.8, "unit": "%"}, {"measurement": "percent parasite growth at 2 µg/mL", "setting": "[2]; Toxoplasma gondii, 72 h, T. gondii, 72 h, screen at 2 μg/mL, replicate 1; read-out: Tg_72h_%Growth_Rep1", "result": 153, "unit": "%"}, {"measurement": "percent parasite growth at 2 µg/mL", "setting": "[2]; Toxoplasma gondii, 72 h, T. gondii, 72 h, screen at 2 μg/mL, replicate 2; read-out: Tg_72h_%Growth_Rep2", "result": 98.2, "unit": "%"}, {"measurement": "activity at 2 µg/mL", "setting": "[3]; [18]", "result": 101, "unit": "%"}, {"measurement": "activity at 2 µg/mL", "setting": "[3]; [19]", "result": 90.8, "unit": "%"}]}, {"smiles": "Cc1cc(=O)c2c(o1)O[C@@]1(C)CC[C@@H]3[C@@]4(C)CC[C@H](O)C(C)(C)[C@@H]4CC[C@@]3(C)[C@@H]1C2", "note": "[Chevalone E]", "values": [{"measurement": "Pf_72h_%Growth_Rep1", "setting": "[1]; [4]", "result": 103.28, "unit": "%"}, {"measurement": "Pf_72h_%Growth_Rep2", "setting": "[1]; [5]", "result": 92.51, "unit": "%"}, {"measurement": "Tg_72h_%Growth_Rep1", "setting": "[2]; [6]", "result": 83.71, "unit": "%"}, {"measurement": "Tg_72h_%Growth_Rep2", "setting": "[2]; [7]", "result": 88.30, "unit": "%"}, {"measurement": "Pf_120h_%Growth_Rep1", "setting": "[3]; [8]", "result": 162.52, "unit": "%"}, {"measurement": "Pf_120h_%Growth_Rep2", "setting": "[3]; [9]", "result": 100.96, "unit": "%"}]}]}
